{"source": "paper PMC5095700", "about": "(Biochemistry, 2016)", "biological_target": "T1, Glucosamine/glucosaminide N-acetyltransferase (GlmA) (Clostridium acetobutylicum, UniProt Q97ML2, Y297F)", "T1 sequence (Q97ML2 1-320 Y297F)": "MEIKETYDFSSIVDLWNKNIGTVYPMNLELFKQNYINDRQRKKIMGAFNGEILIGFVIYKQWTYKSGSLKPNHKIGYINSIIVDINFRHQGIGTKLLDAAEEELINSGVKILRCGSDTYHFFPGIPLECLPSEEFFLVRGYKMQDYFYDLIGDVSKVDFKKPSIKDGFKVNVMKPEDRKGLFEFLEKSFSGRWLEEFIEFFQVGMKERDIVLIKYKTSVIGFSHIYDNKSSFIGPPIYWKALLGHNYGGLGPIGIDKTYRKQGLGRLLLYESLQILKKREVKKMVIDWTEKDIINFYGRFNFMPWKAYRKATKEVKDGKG", "test": "X-ray crystal structure of Y297F variant", "assay_type": "binding"}
{"smiles": "CC(=O)SCCNC(=O)CCNC(=O)[C@H](O)C(C)(C)COP(=O)(O)OP(=O)(O)OC[C@H]1O[C@@H](n2cnc3c(N)ncnc32)[C@H](O)[C@@H]1OP(=O)(O)O", "note": "[AcCoA, acetyl CoA]", "values": [{"measurement": "X-ray crystal structure of Y297F variant (1.8 Å)", "result": "electron density was clearly visible for the acetyl group of the cofactor bound in the C-terminal domain"}]}
